According to patent publication US11180504B2 (ORCHID PHARMA LTD., priority 2016, dated 2021):
Converted amounts (≈) assume the structure as drawn. Read-outs that look alike come from different tables or passages of the source.

Key:
[1] = system: methicillin-sensitive Staphylococcus aureus; assay: MIC by broth micro-dilution (CLSI), methicillin-sensitive S. aureus; assay type: cell-based; conditions: Staphylococcus aureus, ATCC 29213 / MSSA, MSSA S. aureus ATCC29213; read-out: MIC
[2] = system: carbapenemase producing K. pneumoniae; assay: MIC by broth micro-dilution (CLSI), carbapenemase producing K. pneumoniae; assay type: cell-based, Klebsiella pneumoniae
[3] = system: carbapenem sensitive Pseudomonas aeruginosa; assay: MIC by broth micro-dilution (CLSI), carbapenem sensitive P. aeruginosa; assay type: cell-based; conditions: Pseudomonas aeruginosa, ATCC27853, Meropenem susceptible P. aeruginosa ATCC27853; read-out: MIC
[4] = system: carbapenem sensitive Escherichia coli; assay: MIC by broth micro-dilution (CLSI), carbapenem sensitive E. coli; assay type: cell-based; conditions: Escherichia coli, ATCC25922, ESBL −ve E. coli ATCC25922; read-out: MIC
[5] = Klebsiella pneumoniae, ATCCBAA1705, KPC-2 K. pneumoniae ATCC BAA-1705, read-out: MIC

With `C[C@@H](NC(=O)Cn1cnnn1)[C@H]1C(=O)N2C(C(=O)O)=C(S[C@@H]3CN[C@H](C(=O)N4CC[N+](C)(C)CC4)C3)[C@H](C)[C@H]12` [Example 360, 4-((2S,4S)-((4R,5S,6R)-6-((R)-1-(2-(1H-tetrazol-1-yl)acetamido)ethyl)-2-carboxy-4-methyl-7-oxo-1-azabicyclo[3.2.0]hept-2-en-3-ylthio)pyrrolidine-2-carbonyl)-1,1-dimethylpiperazin-1-ium iodide] the MIC [1] was 8 µg/mL, the MIC [2, 5] was 2 µg/mL and the MIC [3] was 1 µg/mL. It also gave an MIC [4] of 0.5 µg/mL.

With `C[C@@H](NC(=O)Cn1cnnn1)[C@H]1C(=O)N2C(C(=O)O)=C(S[C@@H]3CN[C@H](C(=O)N4CC[N+](C)(CC(N)=O)CC4)C3)[C@H](C)[C@H]12.[I-]` [Example 363, 4-((2S,4S)-4-((4R,5S,6R)-6-((R)-1-(2-(1H-tetrazol-1-yl)acetamido)ethyl)-2-carboxy-4-methyl-7-oxo-1-azabicyclo[3.2.0]hept-2-en-3-ylthio)pyrrolidine-2-carbonyl)-1-(2-amino-2-oxoethyl)-1-methylpiperazin-1-ium iodide] the MIC [1] was 4 µg/mL, the MIC [2, 5] was 2 µg/mL and the MIC [3] was 1 µg/mL. The MIC [4] was 0.25 µg/mL.

With `C[C@@H](NC(=O)Cn1cnnn1)[C@H]1C(=O)N2C(C(=O)O)=C(S[C@@H]3CN[C@H](C(=O)N4CCN(CCN)CC4)C3)[C@H](C)[C@H]12` [Example 364, (4R,5S,6R)-6-((R)-1-(2-(1H-tetrazol-1-yl)acetamido)ethyl)-3-((3S,5S)-5-(4-(2-aminoethyl)piperazine-1-carbonyl)pyrrolidin-3-ylthio)-4-methyl-7-oxo-1-azabicyclo[3.2.0]hept-2-ene-2-carboxylic acid] the MIC [1] was 4 µg/mL (≈ 6.94 µM), the MIC [2, 5] was 2 µg/mL (≈ 3.47 µM) and the MIC [3] was 1 µg/mL (≈ 1.73 µM). It also gave an MIC [4] of 0.25 µg/mL (≈ 0.434 µM).

`C[C@@H](NC(=O)Cn1cnnn1)[C@H]1C(=O)N2C(C(=O)O)=C(S[C@@H]3CN[C@H](C(=O)N4CCC5(CCN5)CC4)C3)[C@H](C)[C@H]12` [Example 365, (4R,5S,6R)-3-((3S,5S)-5-(1,7-diazaspiro[3.5]nonane-7-carbonyl)pyrrolidin-3-ylthio)-6-((R)-1-(2-(1H-tetrazol-1-yl)acetamido)ethyl)-4-methyl-7-oxo-1-azabicyclo[3.2.0]hept-2-ene-2-carboxylic acid] gave an MIC [1] of 4 µg/mL (≈ 6.97 µM), an MIC [2, 5] of 2 µg/mL (≈ 3.49 µM) and an MIC [3] of 2 µg/mL (≈ 3.49 µM). It also gave an MIC [4] of 0.25 µg/mL (≈ 0.436 µM).

`C[C@@H](NC(=O)Cn1cnnn1)[C@H]1C(=O)N2C(C(=O)O)=C(S[C@@H]3CN[C@H](C(=O)N4CC5(CCNCC5)C4)C3)[C@H](C)[C@H]12` [Example 366] showed an MIC [1] of 4 µg/mL (≈ 6.97 µM), an MIC [2, 5] of 2 µg/mL (≈ 3.49 µM) and an MIC [3] of 2 µg/mL (≈ 3.49 µM). It also gave an MIC [4] of 0.25 µg/mL (≈ 0.436 µM).

`C[C@@H](NC(=O)Cn1cnnn1)[C@H]1C(=O)N2C(C(=O)O)=C(S[C@@H]3CN[C@H](C(=O)N4CCN(C(=N)N)CC4)C3)[C@H](C)[C@H]12` [Example 367, (4R,5S,6R)-6-((R)-1-(2-(1H-tetrazol-1-yl)acetamido)ethyl)-3-((3S,5S)-5-(4-carbamimidoylpiperazine-1-carbonyl)pyrrolidin-3-ylthio)-4-methyl-7-oxo-1-azabicyclo[3.2.0]hept-2-ene-2-carboxylic acid] showed an MIC [1] of 2 µg/mL (≈ 3.47 µM), an MIC [2, 5] of 2 µg/mL (≈ 3.47 µM) and an MIC [3] of 1 µg/mL (≈ 1.74 µM). For the same compound, the MIC [4] was 0.25 µg/mL (≈ 0.434 µM).

Compound `C[C@@H](NC(=O)Cn1cnnn1)[C@H]1C(=O)N2C(C(=O)O)=C(S[C@@H]3CN[C@H](C(=O)N4CCC5(CC4)CNC5)C3)[C@H](C)[C@H]12` [Example 368, (4R,5S,6R)-6-((R)-1-(2-(1H-tetrazol-1-yl)acetamido)ethyl)-3-((3S,5S)-5-(2,7-diazaspiro[3.5]nonane-7-carbonyl)pyrrolidin-3-ylthio)-4-methyl-7-oxo-1-azabicyclo[3.2.0]hept-2-ene-2-carboxylic acid] has an MIC [1] of 2 µg/mL (≈ 3.49 µM), an MIC [2, 5] of 2 µg/mL (≈ 3.49 µM) and an MIC [3] of 1 µg/mL (≈ 1.74 µM). It also gave an MIC [4] of 0.25 µg/mL (≈ 0.436 µM).

`C[C@@H](NC(=O)CCn1cnnn1)[C@H]1C(=O)N2C(C(=O)O)=C(S[C@@H]3CN[C@H](C(=O)N4CC[C@@H](N)C4)C3)[C@H](C)[C@H]12` [Example 369, (4R,5S,6R)-6-((R)-1-(3-(1H-tetrazol-1-yl)propanamido)ethyl)-3-((3S,5S)-5-((R)-3-aminopyrrolidine-1-carbonyl)pyrrolidin-3-ylthio)-4-methy-7-oxo-1-azabicyclo[3.2.0]hept-2-ene-2-carboxylic acid] showed an MIC [1] of 2 µg/mL (≈ 3.65 µM), an MIC [2, 5] of 8 µg/mL (≈ 14.6 µM) and an MIC [3] of 16 µg/mL (≈ 29.2 µM). For the same compound, the MIC [4] was 0.25 µg/mL (≈ 0.457 µM).

Work on `C[C@@H](NC(=O)Cn1cnnn1)[C@H]1C(=O)N2C(C(=O)O)=C(S[C@@H]3CN[C@H](C(=O)N4CCC(Nc5ncccn5)CC4)C3)[C@H](C)[C@H]12` [Example 370, (4R,5S,6R)-6-((R)-1-(2-(1H-tetrazol-1-yl)acetamido)ethyl)-4-methyl-7-oxo-3-((3S,5S)-5-(4-(pyrimidin-2-ylamino)piperidine-1-carbonyl)pyrrolidin-3-ylthio)-1-azabicyclo[3.2.0]hept-2-ene-2-carboxylic acid] yielded an MIC [1] of 8 µg/mL (≈ 12.8 µM), an MIC [2, 5] of 64 µg/mL (≈ 102 µM) and an MIC [3] of over 128 µg/mL. For the same compound, the MIC [4] was 4 µg/mL (≈ 6.39 µM).

Compound `C[C@@H](NC(=O)Cn1cnnn1)[C@H]1C(=O)N2C(C(=O)O)=C(S[C@@H]3CN[C@H](C(=O)N4CCC(N)(CC#N)CC4)C3)[C@H](C)[C@H]12` [Example 371, (4R,5S,6R)-6-((R)-1-(2-(1H-tetrazol-1-yl)acetamido)ethyl)-3-((3S,5S)-5-(4-amino-4-(cyanomethyl)piperidine-1-carbonyl)pyrrolidin-3-ylthio)-4-methyl-7-oxo-1-azabicyclo[3.2.0]hept-2-ene-2-carboxylic acid] has an MIC [1] of 16 µg/mL (≈ 27.3 µM), an MIC [2, 5] of 4 µg/mL (≈ 6.82 µM) and an MIC [3] of 64 µg/mL (≈ 109 µM). It also gave an MIC [4] of 1 µg/mL (≈ 1.7 µM).

`C[C@@H](NC(=O)Cn1nnnc1C1CC1)[C@H]1C(=O)N2C(C(=O)O)=C(S[C@@H]3CN[C@H](C(=O)N4CC[C@@H](N)C4)C3)[C@H](C)[C@H]12` [Example 372, (4R,5S,6R)-3-((3S,5S)-5-((R)-3-aminopyrrolidine-1-carbonyl)pyrrolidin-3-ylthio)-6-((R)-1-(2-(5-cyclopropyl-1H-tetrazol-1-yl)acetamido)ethyl)-4-methyl-7-oxo-1-azabicyclo[3.2.0]hept-2-ene-2-carboxylic acid] was tested, and the MIC [1] was 4 µg/mL (≈ 6.97 µM), the MIC [2, 5] was 8 µg/mL (≈ 13.9 µM) and the MIC [3] was 64 µg/mL (≈ 112 µM). For the same compound, the MIC [4] was 0.5 µg/mL (≈ 0.872 µM).

`C[C@@H](NC(=O)c1ccccc1-n1cnnn1)[C@H]1C(=O)N2C(C(=O)O)=C(S[C@@H]3CN[C@H](C(=O)N(C)C)C3)[C@H](C)[C@H]12` [Example 373] was tested, and the MIC [1] was 4 µg/mL (≈ 7.21 µM), the MIC [2, 5] was over 128 µg/mL and the MIC [3] was over 128 µg/mL. For the same compound, the MIC [4] was 32 µg/mL (≈ 57.7 µM).

`C[C@@H](NC(=O)c1ccccc1-n1cnnn1)[C@H]1C(=O)N2C(C(=O)O)=C(S[C@@H]3CN[C@H](C(=O)N4CC[C@@H](N)C4)C3)[C@H](C)[C@H]12` [Example 374, (4R,5S,6R)-6-((R)-1-(2-(1H-tetrazol-1-yl)benzamido)ethyl)-3-((3S,5S)-5-((R)-3-aminopyrrolidine-1-carbonyl)pyrrolidin-3-ylthio)-4-methyl-7-oxo-1-azabicyclo[3.2.0]hept-2-ene-2-carboxylic acid] showed an MIC [1] of 8 µg/mL (≈ 13.4 µM), an MIC [2, 5] of over 128 µg/mL and an MIC [3] of over 128 µg/mL. For the same compound, the MIC [4] was 32 µg/mL (≈ 53.7 µM).

`C[C@@H](NC(=O)Cn1cnnn1)[C@H]1C(=O)N2C(C(=O)O)=C(S[C@@H]3CN[C@H](C(=O)N4CC[N+](C)(CCN)CC4)C3)[C@H](C)[C@H]12.[I-]` [Example 375, 4-((2S,4S)-4-((4R,5S,6R)-6-((R)-1-(2-(1H-tetrazol-1-yl)acetamido)ethyl)-2-carboxy-4-methyl-7-oxo-1-azabicyclo[3.2.0]hept-2-en-3-ylthio)pyrrolidine-2-carbonyl)-1-(2-aminoethyl)-1-methylpiperazin-1-ium iodide] was tested, and the MIC [1] was 16 µg/mL, the MIC [2, 5] was 8 µg/mL and the MIC [3] was 4 µg/mL. It also gave an MIC [4] of 2 µg/mL.

In the case of `C[C@@H](NC(=O)Cn1cnnn1)[C@H]1C(=O)N2C(C(=O)O)=C(SC3CN(S(N)(=O)=O)C3)[C@H](C)[C@H]12` [Example 376, (4R,5S,6R)-6-((R)-1-(2-(1H-tetrazol-1-yl)acetamido)ethyl)-4-methyl-7-oxo-3-(1-sulfamoylazetidin-3-ylthio)-1-azabicyclo[3.2.0]hept-2-ene-2-carboxylic acid], the MIC [1] is reported as 8 µg/mL (≈ 16.4 µM), the MIC [2, 5] is reported as 16 µg/mL (≈ 32.9 µM) and the MIC [3] is reported as over 128 µg/mL. It also gave an MIC [4] of 0.25 µg/mL (≈ 0.514 µM).

Work on `C[C@@H](NC(=O)Cn1cnnn1)[C@H]1C(=O)N2C(C(=O)O)=C(S[C@@H]3CN[C@H](C(=O)N4C5CCC4CC4(CCNC4)C5)C3)[C@H](C)[C@H]12` (stereo partly drawn) [Example 377, (4R,5S,6R)-6-((R)-1-(2-(1H-tetrazol-1-yl)acetamido)ethyl)-3-((3S,5S)-5-(8-azaspiro[bicyclo[3.2.1]octane-3,3′-pyrrolidine]-8-ylcarbonyl)pyrrolidin-3-ylthio)-4-methyl-7-oxo-1-azabicyclo[3.2.0]hept-2-ene-2-carboxylic acid] yielded an MIC [1] of 4 µg/mL (≈ 6.52 µM), an MIC ([2]; Klebsiella pneumoniae, ATCCBAA1705) of 2 µg/mL (≈ 3.26 µM) and an MIC [3] of 8 µg/mL (≈ 13 µM). For the same compound, the MIC [4] was 0.25 µg/mL (≈ 0.407 µM).

`C[C@@H](NC(=O)Cn1nnnc1C1CC1)[C@H]1C(=O)N2C(C(=O)O)=C(S[C@@H]3CN[C@H](C(=O)N(C)C)C3)[C@H](C)[C@H]12` [Example 378] gave an MIC [1] of 4 µg/mL (≈ 7.51 µM), an MIC [2, 5] of 2 µg/mL (≈ 3.75 µM) and an MIC [3] of 128 µg/mL (≈ 240 µM). The MIC [4] was 0.25 µg/mL (≈ 0.469 µM).

With `C[C@@H](NS(=O)(=O)Cn1cnnn1)[C@H]1C(=O)N2C(C(=O)O)=C(S[C@@H]3CN[C@H](C(=O)N(C)C)C3)[C@H](C)[C@H]12` [Example 379, (4R,5S,6S)-6-((R)-1-((1H-tetrazol-1-yl)methylsulfonamido)ethyl)-3-((3S,5S)-5-(dimethylcarbamoyl)pyrrolidin-3-ylthio)-4-methyl-7-oxo-1-azabicyclo[3.2.0]hept-2-ene-2-carboxcylic acid] the MIC [1] was 16 µg/mL (≈ 30.3 µM), the MIC ([2]; KPC-2 K. pneumoniae ATCC BAA-1705) was 16 µg/mL (≈ 30.3 µM) and the MIC [3] was over 128 µg/mL. For the same compound, the MIC [4] was 0.5 µg/mL (≈ 0.946 µM).
